Laboratory results published in paper PMC6061685 (Toxicological Sciences, 2018).
“Also recorded” adds a separate entry of the source. Like-named read-outs stand apart in the source and are kept apart here.

Key:
[1] = system: AR; conditions: exposure 0–10 µM; ref Vinggaard et al. (2000); cited from earlier work
[2] = system: AR; conditions: exposure 0–100 µM; ref Kizu et al. (2003); cited from earlier work
[3] = molecular target: T1, aryl hydrocarbon receptor (AhR) (Rattus norvegicus, UniProt P41738); experiment: H4IIE AhR CALUX agonist assay; format: cell-based
T1 sequence (P41738 10-853): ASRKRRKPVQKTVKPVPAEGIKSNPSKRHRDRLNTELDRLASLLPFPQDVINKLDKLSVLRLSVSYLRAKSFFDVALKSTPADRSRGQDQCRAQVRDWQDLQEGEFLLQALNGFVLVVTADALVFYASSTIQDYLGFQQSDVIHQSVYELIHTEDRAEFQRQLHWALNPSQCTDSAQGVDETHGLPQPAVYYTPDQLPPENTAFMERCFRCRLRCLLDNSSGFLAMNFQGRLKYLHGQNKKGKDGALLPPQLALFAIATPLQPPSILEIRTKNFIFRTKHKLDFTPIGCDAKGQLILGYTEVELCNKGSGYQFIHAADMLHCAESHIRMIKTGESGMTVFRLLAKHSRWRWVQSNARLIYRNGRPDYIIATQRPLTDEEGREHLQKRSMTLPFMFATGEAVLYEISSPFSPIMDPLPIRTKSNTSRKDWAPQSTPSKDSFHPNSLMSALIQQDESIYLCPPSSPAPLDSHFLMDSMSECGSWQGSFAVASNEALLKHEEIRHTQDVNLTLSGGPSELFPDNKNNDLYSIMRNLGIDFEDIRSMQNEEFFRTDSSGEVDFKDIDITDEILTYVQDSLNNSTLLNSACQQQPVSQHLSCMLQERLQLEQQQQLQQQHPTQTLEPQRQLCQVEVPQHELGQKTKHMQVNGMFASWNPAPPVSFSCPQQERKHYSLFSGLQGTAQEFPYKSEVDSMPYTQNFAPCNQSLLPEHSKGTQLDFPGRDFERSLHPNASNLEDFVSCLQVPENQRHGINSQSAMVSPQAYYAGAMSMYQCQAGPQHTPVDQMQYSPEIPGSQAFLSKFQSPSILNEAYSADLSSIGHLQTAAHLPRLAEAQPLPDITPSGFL

[4] = system: ERα; conditions: 10 mg/kg bw/day; ref Kummer et al. (2008); cited from earlier work
[5] = molecular target: T2, estrogen receptor alpha (ERα) (Homo sapiens, UniProt P03372); experiment: U2OS ERα CALUX antagonist assay; format: cell-based; conditions: 24 h exposure; with EC50 concentration of E2 (2.7 × 10^−6 µg/ml)
T2 sequence (P03372 1-595): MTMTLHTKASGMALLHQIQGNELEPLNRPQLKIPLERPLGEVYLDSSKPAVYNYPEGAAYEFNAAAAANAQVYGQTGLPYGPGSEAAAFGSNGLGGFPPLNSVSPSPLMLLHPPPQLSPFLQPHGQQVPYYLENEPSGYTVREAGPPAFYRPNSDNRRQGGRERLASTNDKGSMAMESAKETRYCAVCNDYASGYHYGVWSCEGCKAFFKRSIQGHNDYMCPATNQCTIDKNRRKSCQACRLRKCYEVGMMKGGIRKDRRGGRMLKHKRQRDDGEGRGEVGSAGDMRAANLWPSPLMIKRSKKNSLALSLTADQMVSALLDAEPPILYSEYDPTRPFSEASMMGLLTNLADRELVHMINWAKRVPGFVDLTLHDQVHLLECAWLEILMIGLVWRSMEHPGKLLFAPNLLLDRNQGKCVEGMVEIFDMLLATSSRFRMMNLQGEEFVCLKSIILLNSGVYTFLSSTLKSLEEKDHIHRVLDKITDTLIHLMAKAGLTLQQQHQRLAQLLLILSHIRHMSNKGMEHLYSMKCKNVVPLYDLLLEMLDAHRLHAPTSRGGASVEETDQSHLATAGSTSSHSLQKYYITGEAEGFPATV

[6] = system: ERα; conditions: exposure 0–10 µM; ref Charles et al. (2000); cited from earlier work

SMILES	Effects on AR [1]	Effects on AR [2]	other results
c1cc2ccc3cccc4ccc(c1)c2c34 [Pyrene]	AR antagonist; also recorded: Phenanthrene, Anthracene, Pyrene: antagonize the AR activity just at the highest tested concentration	Anthracene and Pyrene show no AR-mediated activity.	
Cc1c2ccccc2c(C)c2c1ccc1ccccc12 [7, 12-dimethylbenz[a]anthracene]	AR antagonist		
c1ccc2c(c1)ccc1ccccc12 [Phenanthrene]	AR antagonist; also recorded: Phenanthrene, Anthracene, Pyrene: antagonize the AR activity just at the highest tested concentration		
c1ccc2c(c1)cc1ccc3cccc4ccc2c1c34 [BaP, benzo[a]pyrene, reference compound]	AR antagonist	AR antagonist (except for anthracene and pyrene)	EC50 [3]: 12.3 nM
c1ccc2cc3ccccc3cc2c1 [Anthracene]	AR antagonist; also recorded: Phenanthrene, Anthracene, Pyrene: antagonize the AR activity just at the highest tested concentration	Anthracene and Pyrene show no AR-mediated activity.	
c1ccc2cc3c(cc2c1)-c1cccc2cccc-3c12 [Benzo[k]fluoranthene]		AR antagonist (except for anthracene and pyrene)	Effects on ERα [4]: Benzo[k]fluoranthene shows no ERα-mediated activity.
c1ccc2c(c1)-c1cccc3cccc-2c13 [Fluoranthene]	AR antagonist		Effects on ERα [4]: ERα agonist (except for Benzo[k]fluoranthene)
C[C@]12CC[C@@H]3c4ccc(O)cc4C[C@@H](CCCCCCCCC[S+]([O-])CCCC(F)(F)C(F)(F)F)[C@H]3[C@@H]1CC[C@@H]2O (some centres unmarked) [Fulvestrant, fulvestrant]			ERα Antagonist Assay IC25 [5]: 0.011 ng/mL
Oc1ccc2cc3ccc4cccc5ccc(c2c1)c3c45 [9OH-BaP]			Effects on ERα [6]: Hydroxy metabolites of BaP, including 3OH-BaP, 9OH-BaP, and 9, 10OH-BaP, act as ERα agonist.
Oc1ccc2ccc3c4ccccc4cc4ccc1c2c43 [3OH-BaP]			Effects on ERα [6]: Hydroxy metabolites of BaP, including 3OH-BaP, 9OH-BaP, and 9, 10OH-BaP, act as ERα agonist.
c1ccc2cc3c(ccc4ccccc43)cc2c1 [Benz[a]anthracene]	AR antagonist		
